Source: US20110177026A1 (priority 2005, published 2011)
Read-outs that look alike come from different tables or passages of the source.

Assays:
Format in all cases: cell-based
[1] = test system: Vesicular stomatitis virus (VSV) Indiana serotype
[2] = test system: BVDV cytopathic strain NADL
[3] = test system: BVDV strain NADL; experiment: microbe, parasite or virus in culture
[4] = VSV-infected cells at MOI=0.01, concentration of 1 mM
[5] = cells infected with VSV at MOI>1

In the case of `O[C@H]1[C@H](O)[C@@H](O)CN2CC[C@H](O)[C@H]12` [CTS, Castanospermine], the antiviral activity [1, 4] is reported as “exhibited antiviral activity”, the antiviral activity [1, 5] is reported as “none” and the antiviral activity [2] is reported as “exhibited antiviral activity”.
`CC1OC(OC2C(CO)OC(OC3C(CO)OC(O)C(O)C3O)C(O)C2O)C(O)C(O)C1NC1C=C(CO)C(O)C(O)C1O` [acarbose, O-4,6-dideoxy-4-[[(1S,4R,5S,6S)-4,5,6-trihydroxy-3-(hydroxymethyl)-2-cyclohexen-1-yl]amino]-α-D-glucopyranosyl-(1→4)-O-α-D-glucopyranosyl-(1→4)-D-glucose] was tested, and the “inhibition of BVDV replication” value [3] was “potent antiviral agents that inhibit BVDV replication”, the antiviral activity [1, 4] was “exhibited antiviral activity” and the antiviral activity [1, 5] was “none”. The antiviral activity [2] was “only the positive control CTS exhibited antiviral activity”.
With `OCCN1CC(O)C(O)C(O)C1CO` (stereo not drawn) [miglitol, 3,4,5-piperidinetriol, 1-(2-hydroxyethyl)-2-(hydroxymethyl)-, [2R-(2α, 3β,4α,5β)]] the “inhibition of BVDV replication” value [3] was “potent antiviral agents that inhibit BVDV replication”, the EC50 ([3]; Bovine viral diarrhea virus isolates and strains, MDBK, read-out: Dm) was 221 µM and the antiviral activity [1, 4] was “exhibited antiviral activity”. For the same compound, the antiviral activity [1, 5] was “none” and the antiviral activity [2] was “only the positive control CTS exhibited antiviral activity”.
